What was measured:
[1] = target: T1, Aldo-keto reductase family 1 member A1 (Homo sapiens, UniProt P14550); assay: In vitro inhibition of recombinant human aldehyde reductase
T1 sequence (P14550 whole entry): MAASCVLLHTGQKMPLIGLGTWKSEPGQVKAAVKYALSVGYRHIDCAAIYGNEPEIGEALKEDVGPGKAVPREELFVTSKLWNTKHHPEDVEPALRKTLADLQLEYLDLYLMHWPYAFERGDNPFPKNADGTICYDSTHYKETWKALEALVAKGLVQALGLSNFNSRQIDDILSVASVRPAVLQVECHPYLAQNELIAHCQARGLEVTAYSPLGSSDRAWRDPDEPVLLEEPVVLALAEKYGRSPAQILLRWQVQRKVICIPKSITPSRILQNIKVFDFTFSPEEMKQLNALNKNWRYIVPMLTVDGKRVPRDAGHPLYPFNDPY

[2] = target: Aldo-keto reductase family 1 member B1 (Homo sapiens, UniProt P15121); assay: In vitro inhibition of recombinant human aldose reductase expressed in Escherichia coli
[3] = test system: Rattus norvegicus; assay: Inhibition of sciatic nerve sorbitol accumulation in diabetic rats (streptozotocin treated) done for 30 minutes at 22 degree C in dark by using sorbitol dehydrogenase at 10 mg/kg/day; format: functional; conditions: 0.5 h
[4] = test system: Rattus norvegicus; assay: Inhibition of sorbitol accumulation in lens of diabetic rats (streptozotocin treated) done for 30 minutes at 22 degree C in dark by using sorbitol dehydrogenase at 10 mg/kg/day; format: functional; conditions: Lens of camera-type eye, 0.5 h
[5] = Time require to reach maximum plasma concentration was determined in fasted rats after p.o. doses of 6 mg/kg/day; format: ADME, organism-based; design: route oral; conditions: rat, po
[6] = test system: Rattus norvegicus; assay: Fructose accumulation in 3 month diabetic rats (streptozotocin treated) done for 30 minutes at 22 degree C in dark by using sorbitol dehydrogenase at 5 mg/kg/day; format: functional
[7] = test system: Rattus norvegicus; assay: Myo-inositol accumulation in 3 month diabetic rats (streptozotocin treated) done for 30 minutes at 22 degree C in dark by using sorbitol dehydrogenase at 5 mg/kg/day; format: functional
[8] = test system: Rattus norvegicus; assay: Improvement in fructose accumulation in 3 month diabetic rats (streptozotocin treated) done for 30 minutes at 22 degree C in dark by using sorbitol dehydrogenase at 5 mg/kg/day; format: functional
[9] = test system: Rattus norvegicus; assay: Improvement in sorbitol accumulation in 3 month diabetic rats (streptozotocin treated) done for 30 minutes at 22 degree C in dark by using sorbitol dehydrogenase at 5 mg/kg/day; format: functional
[10] = test system: Rattus norvegicus; assay: Improvement in myo-inositol accumulation in 3 month diabetic rats (streptozotocin treated) done for 30 minutes at 22 degree C in dark by using sorbitol dehydrogenase at 5 mg/kg/day; format: functional
[11] = Maximum plasma concentration was determined in fasted rats after p.o. doses of 6 mg/kg/day; format: ADME, organism-based; design: dose 6 mg/kg/day, route oral; conditions: rat, in vivo, po
[12] = Half-life was determined in fasted rats after p.o. doses of 6 mg/kg/day; format: ADME, organism-based; design: route oral; conditions: rat, in vivo, po
[13] = Half-life was determined in fasted rats after i.v. doses of 10 mg/kg/day; format: ADME, organism-based; design: route intravenous; conditions: rat, in vivo, iv
[14] = Half-life was determined in nonfasted rats after p.o. doses of 6 mg/kg/day; format: ADME, organism-based; design: route oral; conditions: rat, in vivo, po
[15] = Area under the concentration time curve 0-24 h was determined in nonfasted rats after p.o. doses of 6 mg/kg/day; format: ADME, organism-based; design: dose 6 mg/kg/day, time < 24 hr, route oral; conditions: rat, in vivo, po
[16] = Area under the concentration time curve 0-24 hr was determined in fasted rats after p.o. doses of 6 mg/kg/day; format: ADME, organism-based; design: time < 24 hr, dose 6 mg/kg/day, route oral; conditions: rat, in vivo, po
[17] = Area under the concentration time curve 0-24 hr was determined in fasted rats after i.v. doses of 10 mg/kg/day; format: ADME, organism-based; design: time < 24 hr, dose 10 mg/kg/day, route intravenous; conditions: rat, in vivo, iv
[18] = Total body clearance was determined in fasted rats after p.o. doses of 6 mg/kg/day; format: ADME, organism-based; design: route oral; conditions: rat, in vivo, po, read-out: ClT
[19] = Total body clearance was determined in fasted rats after i.v. doses of 10 mg/kg/day; format: ADME, organism-based; design: route intravenous; conditions: rat, in vivo, iv, read-out: ClT
[20] = Total body clearance was determined in nonfasted rats after p.o. doses of 6 mg/kg/day; format: ADME, organism-based; design: route oral; conditions: rat, in vivo, po, read-out: ClT
[21] = Time require to reach maximum plasma concentration was determined in fasted rats after i.v. doses of 10 mg/kg/day; format: ADME, organism-based; design: route intravenous; conditions: rat, iv
[22] = Time require to reach maximum plasma concentration was determined in nonfasted rats after p.o. doses of 6 mg/kg/day; format: ADME, organism-based; design: route oral; conditions: rat, po
[23] = Volume of distribution was determined in fasted rats after i.v. doses of 10 mg/kg/day; format: ADME, organism-based; design: route intravenous; conditions: rat, in vivo, iv
[24] = Maximum plasma concentration was determined in fasted rats after i.v. doses of 10 mg/kg/day; format: ADME, organism-based; design: dose 10 mg/kg/day, route intravenous; conditions: rat, in vivo, iv
[25] = Maximum plasma concentration was determined in nonfasted rats after p.o. doses of 6 mg/kg/day; format: ADME, organism-based; design: dose 6 mg/kg/day, route oral; conditions: rat, in vivo, po
[26] = organism: Rattus norvegicus
Description: Sorbitol accumulation in 3 month diabetic rats (streptozotocin treated) done for 30 minutes at 22 degree C in dark by using sorbitol dehydrogenase at 5 mg/kg/day; BQL is Below quantifiable level

[27] = organism: Rattus norvegicus; remark: listed apart in the source
Description: Ability to lower elevated glucose levels in diabetic rats (streptozotocin treated) model at 0.48 mg/kg/day

[28] = organism: Rattus norvegicus; remark: listed apart in the source
Description: Ability to lower elevated glucose levels in diabetic rats (streptozotocin treated) model at 0.95 mg/kg/day

[29] = organism: Rattus norvegicus; conditions: Plasma
Description: Ability to lower elevated plasma triglyceride levels in diabetic rats (streptozotocin treated) model at 1.9 mg/kg/day

[30] = organism: Rattus norvegicus; conditions: Plasma; remark: listed apart in the source
Description: Ability to lower elevated plasma triglyceride levels in diabetic rats (streptozotocin treated) model at 4.8 mg/kg/day

[31] = organism: Rattus norvegicus; conditions: Plasma; remark: listed apart in the source
Description: Ability to lower elevated plasma triglyceride levels in diabetic rats (streptozotocin treated) model at 0.48 mg/kg/day

[32] = organism: Rattus norvegicus; conditions: Plasma; remark: listed apart in the source
Description: Ability to lower elevated plasma triglyceride levels in diabetic rats (streptozotocin treated) model at 0.95 mg/kg/day

[33] = organism: Rattus norvegicus; remark: listed apart in the source
Description: Ability to lower elevated glucose levels in diabetic rats (streptozotocin treated) model at 1.4 mg/kg/day

[34] = organism: Rattus norvegicus; remark: listed apart in the source
Description: Ability to lower elevated glucose levels in diabetic rats (streptozotocin treated) model at 1.9 mg/kg/day

[35] = organism: Rattus norvegicus; remark: listed apart in the source
Description: Ability to lower elevated glucose levels in diabetic rats (streptozotocin treated) model at 4.8 mg/kg/day

[36] = organism: Rattus norvegicus; conditions: Plasma; remark: listed apart in the source
Description: Ability to lower elevated plasma triglyceride levels in diabetic rats (streptozotocin treated) model at 1.4 mg/kg/day

Structure (SMILES): O=C(O)Cn1cc(Cc2nc3cc(C(F)(F)F)ccc3s2)c2ccc(Br)cc21
- IC50 [1]: 3.4 µM

Structure (SMILES): O=C(O)Cn1cc(Cc2nc3cc(F)c(F)cc3s2)c2ccccc21
- IC50 [1]: 13 µM
- IC50 [2]: 0.56 µM

Structure (SMILES): O=C(O)Cn1cc(Cc2nc3ccc(Cl)cc3s2)c2ccccc21
- IC50 [1]: 2.1 µM

Structure (SMILES): COc1ccc2c(c1)c(Cc1nc3c(F)c(F)cc(F)c3s1)cn2CC(=O)O
- IC50 [2]: 0.008 µM

Structure (SMILES): O=C(O)Cn1cc(Cc2nc3c(F)c(F)cc(F)c3s2)c2cc(Br)ccc21
- IC50 [1]: 4.7 µM

Structure (SMILES): Cc1ccc2c(c1)c(Cc1nc3cc(C(F)(F)F)ccc3s1)cn2CC(=O)O
- IC50 [1]: 10.2 µM
- IC50 [2]: 0.1 µM

Structure (SMILES): O=C(O)Cn1cc(Cc2nc3c(F)cc(F)cc3s2)c2ccccc21
- IC50 [1]: 5.1 µM
- IC50 [2]: 0.69 µM

Structure (SMILES): O=C(O)Cn1cc(Cc2nc3c(F)c(F)cc(F)c3s2)c2ccc(N3CCOCC3)cc21
- IC50 [1]: 44 µM

Structure (SMILES): Cc1ccc2c(Cc3nc4c(F)c(F)cc(F)c4s3)cn(CC(=O)O)c2c1
- IC50 [2]: 0.01 µM

Structure (SMILES): O=C(O)Cn1cc(CCc2nc3c(F)c(F)cc(F)c3s2)c2ccccc21
- IC50 [1]: 11 µM
- IC50 [2]: 0.008 µM

Structure (SMILES): CC(C(=O)O)n1cc(Cc2nc3c(F)c(F)cc(F)c3s2)c2ccccc21 (stereo not drawn)
- IC50 [2]: 0.163 µM

Structure (SMILES): O=C(O)Cn1cc(C(=O)c2nc3c(F)c(F)cc(F)c3s2)c2ccccc21
- IC50 [2]: 1.6 µM

Structure (SMILES): O=C(O)Cn1cc(Cc2nc3cc(F)ccc3s2)c2ccccc21
- IC50 [1]: 6.4 µM

Structure (SMILES): O=C(O)Cn1cc(Cc2nc3ccc(F)cc3s2)c2ccccc21
- IC50 [2]: 1 µM

Structure (SMILES): O=C(O)Cn1cc(Cc2nc3c(F)c(F)cc(F)c3s2)c2ccc(-c3ccccc3)cc21
- IC50 [1]: 6.1 µM

Structure (SMILES): O=C(O)Cn1cc(Cc2nc3cccc(F)c3s2)c2ccccc21
- IC50 [1]: 18 µM
- IC50 [2]: 0.055 µM

Structure (SMILES): O=C(O)Cn1cc(Cc2nc3cc(C(F)(F)F)ccc3s2)c2cc(Cl)ccc21
- IC50 [1]: 4.9 µM
- IC50 [2]: 0.13 µM

Structure (SMILES): O=C(O)Cn1cc(Cc2nc3c(F)cccc3s2)c2ccccc21
- IC50 [1]: 11 µM
- IC50 [2]: 0.034 µM

Structure (SMILES): O=C(O)Cn1cc(Cc2nc3c(F)c(F)cc(F)c3s2)c2ccccc21 [LIDORESTAT]
- inhibition in vivo at 10 mg/kg/day [3]: 100%
- inhibition in vivo at 10 mg/kg/day [4]: 77%
- Tmax [5]: 3.5 h
- Accumulation [6]: 1.62 nM/mg of dry wt
- Accumulation [7]: 9.26 nM/mg of dry wt
- Accumulation [8]: 100%
- Accumulation [9]: 100%
- Accumulation [10]: 79%
- Cmax [11]: 4.18 ug equiv/mL
- half-life [12]: 5.61 h
- half-life [13]: 5.04 h
- half-life [14]: 5.18 h
- AUC [15]: 72.8 ug equiv/h/mL
- AUC [16]: 43.5 ug equiv/h/mL
- AUC [17]: 97.1 ug equiv/h/mL
- CL/F [18]: 2.24 mL/min/kg
- clearance [19]: 1.7 mL/min/kg
- CL/F [20]: 1.37 mL/min/kg
- Tmax [21]: 4.8 min
- Tmax [22]: 5 h
- Vd [23]: 0.694 L/kg
- Cmax [24]: 24 ug equiv/mL
- Cmax [25]: 6.09 µg equiv/mL
- Accumulation [26]: Below quantifiable level
- Level [27]: 432 mg/dL
- Level [28]: 430 mg/dL
- Level [29]: 218 mg/dL
- Level [30]: 189 mg/dL
- Level [31]: 301 mg/dL
- Level [32]: 261 mg/dL
- Level [33]: 427 mg/dL
- Level [34]: 440 mg/dL
- Level [35]: 417 mg/dL
- Level [36]: 242 mg/dL

Structure (SMILES): COc1ccc2c(C(=S)N(C)CC(=O)O)cccc2c1C(F)(F)F [TOLRESTAT]
- inhibition in vivo at 10 mg/kg/day [3]: 27%
- inhibition in vivo at 10 mg/kg/day [4]: 7%

Structure (SMILES): O=C(O)Cn1c(=O)n(Cc2ccc(Br)cc2F)c(=O)c2ccc(Cl)cc21 [ZENARESTAT]
- inhibition in vivo at 10 mg/kg/day [3]: 64%
- inhibition in vivo at 10 mg/kg/day [4]: 2%
- IC50 [1]: 9.9 µM
- IC50 [2]: 0.008 µM

Structure (SMILES): O=C(O)Cc1nn(Cc2nc3cc(C(F)(F)F)ccc3s2)c(=O)c2ccccc12 [ZOPOLRESTAT]
- inhibition in vivo at 10 mg/kg/day [3]: 80%
- inhibition in vivo at 10 mg/kg/day [4]: 9%
- IC50 [1]: 38.6 µM

Reference: ChEMBL document CHEMBL1144413 (J Med Chem, 2005)
